Experimental data from patent US6562867B2, “Carbamate compounds for use in preventing or treating bipolar disorder” (Ortho-McNeil Pharmaceutical, Inc., priority 2001, dated 2003).

Legend:
hippocampal kindled rats = test: Hippocampal kindled rat model; format: in vivo, Sprague-Dawley rats; conditions: for # Protected/# Tested / Afterdischarge Duration (sec) ± S.E.M. / Seizure Score ± S.E.M.: time of test 15 min; for Seizure Score ± S.E.M.: stages 1-5
Procedure: In the hippocampal kindling model (Lothman E W, et al., Epilepsy Res., 1988, 2(6) 367-79), adult male Sprague-Dawley rats are surgically implanted with bipolar electrodes. Seizure score was assessed using the following stages: (1) mouth and facial movements; (2) above symptoms plus head nodding; (3) above symptoms plus forelimb clonus;(4) above symptoms plus rearing; and (5) above symptoms plus falling.

[1] = test system: electrically kindled rats (Stage 5 seizures); test: Electrically kindled rat model (corneal electrodes); format: in vivo, Wistar rats; conditions: one hour after administration; for % Protection: 100% minus % Seizure Activity
From the text: A similar effect for the enantiomer of Formula (Ib) was also found in the electrically kindled rat model (Racine R., J. Clin. Neurophysiol., 1972, 32, 281-294), an alternative model of kindling. Electrical stimulation through corneal electrodes induces a progression of behavioral seizures similar to those observed in hippocampal kindling.
Adult male Wistar rats were electrically kindled for 4 seconds (8 mA; 60 Hz) via corneal electrodes for a minimum of Stage 5 seizures.
One hour after oral administration, % Seizure Activity was assessed as a combined score of seizure activity for each animal for the total number of animals per group; % Protection is derived by subtracting % Seizure Activity om 100%.

Question: Which “# Protected/# Tested” value (hippocampal kindled rats; 12.5 mg/kg intraperitoneally) does the source give for `NC(=O)OC[C@@H](O)c1ccccc1Cl` [Formula (Ib)] here?
Answer: 2/7

Question: And the “Afterdischarge Duration (sec) ± S.E.M.” value (hippocampal kindled rats; 12.5 mg/kg intraperitoneally)?
Answer: 52.00 ± 10.88 s

Question: And the “Seizure Score ± S.E.M.” value (hippocampal kindled rats; 12.5 mg/kg intraperitoneally)?
Answer: 3.43 ± 0.53

Question: What about the “# Protected/# Tested” value (hippocampal kindled rats; 25 mg/kg intraperitoneally) of the same molecule?
Answer: 4/7

Question: And the “Afterdischarge Duration (sec) ± S.E.M.” value (hippocampal kindled rats; 25 mg/kg intraperitoneally)?
Answer: 38.29 ± 13.48 s

Question: And the “Seizure Score ± S.E.M.” value (hippocampal kindled rats; 25 mg/kg intraperitoneally)?
Answer: 2.29 ± 0.78

Question: What about the “# Protected/# Tested” value (hippocampal kindled rats; 37.5 mg/kg intraperitoneally) of the same molecule?
Answer: 5/7

Question: And the “Afterdischarge Duration (sec) ± S.E.M.” value (hippocampal kindled rats; 37.5 mg/kg intraperitoneally)?
Answer: 38.00 ± 11.87 s

Question: What about the “Seizure Score ± S.E.M.” value (hippocampal kindled rats; 37.5 mg/kg intraperitoneally) of the same molecule?
Answer: 2.29 ± 0.75

Question: What about the ED50 (hippocampal kindled rats; Rattus norvegicus, ip, intraperitoneally, 95% confidence interval of 12.5 to 37.5 mg/kg, read-out: calculated ED50 for reduction of the seizure score from 5 to 3 or less) of the same molecule?
Answer: ~22.5 mg/kg

Question: And the “% Seizure Activity” value ([1]; 1 mg/kg oral)?
Answer: 93.3%

Question: What about the “% Protection” value ([1]; 1 mg/kg oral) of the same molecule?
Answer: 6.7%

Question: And the “% Seizure Activity” value ([1]; 3 mg/kg oral)?
Answer: 46.7%

Question: And the “% Protection” value ([1]; 3 mg/kg oral)?
Answer: 53.3%

Question: What about the “% Seizure Activity” value ([1]; 10 mg/kg oral) of the same molecule?
Answer: 33.3%

Question: And the “% Protection” value ([1]; 10 mg/kg oral)?
Answer: 66.7%

Question: And the “% Seizure Activity” value ([1]; 100 mg/kg oral)?
Answer: 0%

Question: What about the “% Protection” value ([1]; 100 mg/kg oral) of the same molecule?
Answer: 100%

Question: What about the ED50 ([1]; Rattus norvegicus, 1 h, oral, expression of Stage 5 seizures) of the same molecule?
Answer: 4.2 mg/kg
